The values that follow are results of earlier work, collected in patent US20080108695A1, “Method of Treating Asthma, Allergic Rhinitis, and Skin Disorders” (Alcon Manufacturing Ltd., priority 2006, published 2008).

One data set has as its system neutrophils. As to conditions: potency compared with lipoxin A4; literature report of Lee et al.
The target in data set [1] is T1, ALXR (formyl peptide receptor FPRL-1) (Homo sapiens, UniProt P25090).
T1 sequence (P25090 1-351): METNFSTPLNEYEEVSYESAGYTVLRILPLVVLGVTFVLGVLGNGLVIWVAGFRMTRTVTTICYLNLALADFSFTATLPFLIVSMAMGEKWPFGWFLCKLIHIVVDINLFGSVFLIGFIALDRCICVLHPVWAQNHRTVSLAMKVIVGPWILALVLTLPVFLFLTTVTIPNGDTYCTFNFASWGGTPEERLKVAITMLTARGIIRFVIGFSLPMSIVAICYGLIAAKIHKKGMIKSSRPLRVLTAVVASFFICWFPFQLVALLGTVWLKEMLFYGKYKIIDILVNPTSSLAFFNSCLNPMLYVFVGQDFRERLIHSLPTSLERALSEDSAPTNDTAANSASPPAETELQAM
As to conditions: lipoxin A4 cognate receptor; background statement.

The target in the next data set is T2, cysLT1 (Homo sapiens, UniProt Q9Y271).
T2 sequence (Q9Y271 1-337): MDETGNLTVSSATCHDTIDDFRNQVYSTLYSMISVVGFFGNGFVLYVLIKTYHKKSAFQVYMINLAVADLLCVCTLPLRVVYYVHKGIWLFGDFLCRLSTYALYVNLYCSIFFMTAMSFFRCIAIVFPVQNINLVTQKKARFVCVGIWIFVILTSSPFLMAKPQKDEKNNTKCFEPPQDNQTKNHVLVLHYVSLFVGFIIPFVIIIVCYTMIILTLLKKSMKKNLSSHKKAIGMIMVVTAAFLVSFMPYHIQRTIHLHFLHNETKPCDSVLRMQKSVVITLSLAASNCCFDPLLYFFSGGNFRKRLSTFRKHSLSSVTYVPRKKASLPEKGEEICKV
As to conditions: high affinity receptor for LTD4; background statement.

As for `COC(=O)CCC[C@H](O)[C@H](O)CO` [Compound 1], the “inhibition of LTB4-induced chemotaxis of neutrophils” value in the data set with neutrophils is “as potently as lipoxin A4”.
Consider `CCCCC[C@H](O)[C@H](O)CO` [Compound 2], for which the “inhibition of LTB4-induced chemotaxis of neutrophils” value in the data set on neutrophils is “as potently as lipoxin A4”.
Take `CCCCC[C@H](O)/C=C/C=C\C=C\C=C\[C@@H](O)[C@@H](O)CCCC(=O)O` [Lipoxin A4]: in data set [1], the “binding affinity for ALXR” value was “nM affinity”. In addition, at cysLT1, the “binding affinity for cysLT1” value was “nM affinity”.
